PMC10882719 (Frontiers in Neuroscience, 2024)
Read-outs that look alike come from different tables or passages of the source.

Key:
Type in all cases: cell-based
168 GPCRs [1] = target: T1, 168 GPCRs (Homo sapiens, UniProt Q96LB1)
T1 construct: host or cells: PathHunter cell lines
T1 sequence (Q96LB1 1-330): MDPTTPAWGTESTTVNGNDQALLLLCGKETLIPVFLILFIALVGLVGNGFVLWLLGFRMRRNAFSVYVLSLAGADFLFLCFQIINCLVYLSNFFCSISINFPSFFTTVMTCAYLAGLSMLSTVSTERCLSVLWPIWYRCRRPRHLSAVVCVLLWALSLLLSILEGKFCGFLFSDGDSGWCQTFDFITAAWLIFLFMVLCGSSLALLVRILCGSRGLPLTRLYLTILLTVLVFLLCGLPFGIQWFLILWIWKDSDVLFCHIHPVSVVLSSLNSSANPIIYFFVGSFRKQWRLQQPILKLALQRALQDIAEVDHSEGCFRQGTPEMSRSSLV
Procedure: (§1) Studies were performed at Eurofins DiscoverX Corporation (Fremont, CA) using the GPCRmax assay according to the manufacturer’s protocols. […] Activity greater than 30% typically indicates agonist activity and inhibition greater than 50% indicates antagonist activity. This assay uses enzyme fragment complementation with […] as the functional reporter. When a GPCR is activated, […] is recruited and the reporter is detectable. GPCRmax offers a high-throughput screen of 168 GPCRs for agonist or antagonist activity. Briefly, PathHunter cell lines were propagated, seeded into 384-well microplates and incubated at 37°C. […] Microplates were read following signal generation with a PerkinElmer Envision™ instrument for chemiluminescent signal detection. Compound activity was analyzed using CBIS data analysis suite (ChemInnovation, CA) to determine raw values (RLU). For agonist mode assay, percentage activity was calculated using the following formula: % Activity =100% × (mean RLU of test sample - mean RLU of vehicle control) / (mean MAX control ligand - mean RLU of vehicle control). For antagonist mode assay, percentage inhibition was calculated using the following formula: % Inhibition =100% × (1 - (mean RLU of test sample - mean RLU of vehicle control) / (mean RLU of EC80 control - mean RLU of vehicle control)).

168 GPCRs [2] = target: T2, 168 GPCRs (Homo sapiens, UniProt P08172)
T2 construct: host or cells: PathHunter cell lines
T2 sequence (P08172 1-466): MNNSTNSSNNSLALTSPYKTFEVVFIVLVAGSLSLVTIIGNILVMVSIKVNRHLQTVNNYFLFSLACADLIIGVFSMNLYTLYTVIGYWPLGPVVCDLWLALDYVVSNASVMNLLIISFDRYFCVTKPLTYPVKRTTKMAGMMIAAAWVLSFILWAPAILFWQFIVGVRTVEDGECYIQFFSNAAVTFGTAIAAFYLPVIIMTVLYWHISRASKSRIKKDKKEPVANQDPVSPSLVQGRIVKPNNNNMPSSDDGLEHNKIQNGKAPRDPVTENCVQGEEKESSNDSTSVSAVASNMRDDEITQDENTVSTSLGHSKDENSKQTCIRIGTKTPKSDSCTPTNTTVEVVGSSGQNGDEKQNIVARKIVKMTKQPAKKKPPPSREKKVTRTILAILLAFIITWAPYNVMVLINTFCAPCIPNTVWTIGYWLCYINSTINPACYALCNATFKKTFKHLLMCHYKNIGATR
Procedure: as §1

168 GPCRs [3] = target: T3, 168 GPCRs (Homo sapiens, UniProt P28336); conditions: NMBR
T3 construct: host or cells: PathHunter cell lines
Procedure: as §1

168 GPCRs [4] = target: T4, 168 GPCRs (Homo sapiens, UniProt P21452); conditions: TACR2
T4 construct: host or cells: PathHunter cell lines
T4 sequence (P21452 1-398): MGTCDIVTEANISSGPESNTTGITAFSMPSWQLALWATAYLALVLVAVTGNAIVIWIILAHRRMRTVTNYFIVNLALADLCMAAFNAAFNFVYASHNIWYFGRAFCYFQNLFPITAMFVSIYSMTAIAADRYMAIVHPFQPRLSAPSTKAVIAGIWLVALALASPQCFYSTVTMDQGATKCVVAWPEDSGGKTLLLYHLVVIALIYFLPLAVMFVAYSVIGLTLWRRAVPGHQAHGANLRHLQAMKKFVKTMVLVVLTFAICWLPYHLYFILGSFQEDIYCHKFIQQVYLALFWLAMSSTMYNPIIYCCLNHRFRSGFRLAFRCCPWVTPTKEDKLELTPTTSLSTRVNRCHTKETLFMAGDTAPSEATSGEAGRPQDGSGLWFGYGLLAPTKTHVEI
Procedure: as §1

168 GPCRs [5] = target: T5, 168 GPCRs (Homo sapiens, UniProt Q9Y5N1)
T5 construct: host or cells: PathHunter cell lines
Procedure: as §1

168 GPCRs [6] = target: T6, 168 GPCRs (Homo sapiens, UniProt P51684)
T6 construct: host or cells: PathHunter cell lines
T6 sequence (P51684 1-374): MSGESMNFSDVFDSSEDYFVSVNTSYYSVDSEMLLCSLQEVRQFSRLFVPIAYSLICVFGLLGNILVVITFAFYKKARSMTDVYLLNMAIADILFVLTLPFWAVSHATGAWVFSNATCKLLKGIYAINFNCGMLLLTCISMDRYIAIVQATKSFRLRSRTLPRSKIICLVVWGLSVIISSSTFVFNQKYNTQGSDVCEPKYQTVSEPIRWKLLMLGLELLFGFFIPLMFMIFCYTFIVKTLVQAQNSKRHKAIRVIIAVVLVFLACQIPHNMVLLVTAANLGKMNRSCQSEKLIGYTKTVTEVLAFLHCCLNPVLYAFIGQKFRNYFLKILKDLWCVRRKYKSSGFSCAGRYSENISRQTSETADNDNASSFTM
Procedure: as §1

168 GPCRs [7] = target: T7, 168 GPCRs (Homo sapiens, UniProt Q15722); conditions: LTB4R
T7 construct: host or cells: PathHunter cell lines
Procedure: as §1

T3 sequence (P28336 whole entry): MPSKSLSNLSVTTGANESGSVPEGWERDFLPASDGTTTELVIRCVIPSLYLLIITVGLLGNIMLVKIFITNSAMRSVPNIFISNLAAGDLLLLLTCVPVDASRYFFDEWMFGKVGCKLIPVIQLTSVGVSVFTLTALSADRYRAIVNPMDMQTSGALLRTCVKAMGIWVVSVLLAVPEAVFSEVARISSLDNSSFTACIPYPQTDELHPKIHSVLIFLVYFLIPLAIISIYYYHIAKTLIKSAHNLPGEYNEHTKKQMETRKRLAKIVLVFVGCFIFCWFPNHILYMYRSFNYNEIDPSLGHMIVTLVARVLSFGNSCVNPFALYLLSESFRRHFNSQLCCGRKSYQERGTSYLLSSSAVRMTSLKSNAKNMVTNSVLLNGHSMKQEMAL
T5 sequence (Q9Y5N1 whole entry): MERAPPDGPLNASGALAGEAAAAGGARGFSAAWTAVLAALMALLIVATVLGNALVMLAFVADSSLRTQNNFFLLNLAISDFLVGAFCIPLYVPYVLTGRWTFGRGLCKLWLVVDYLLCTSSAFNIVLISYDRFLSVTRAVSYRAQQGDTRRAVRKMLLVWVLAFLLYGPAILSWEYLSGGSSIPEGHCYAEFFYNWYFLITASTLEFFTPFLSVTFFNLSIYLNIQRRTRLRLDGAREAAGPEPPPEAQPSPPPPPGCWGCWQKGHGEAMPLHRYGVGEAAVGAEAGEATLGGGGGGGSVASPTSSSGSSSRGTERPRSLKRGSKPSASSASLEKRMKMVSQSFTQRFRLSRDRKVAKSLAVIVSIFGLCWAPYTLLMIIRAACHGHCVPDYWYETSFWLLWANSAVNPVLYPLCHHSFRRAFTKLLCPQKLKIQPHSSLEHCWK
T7 sequence (Q15722 whole entry): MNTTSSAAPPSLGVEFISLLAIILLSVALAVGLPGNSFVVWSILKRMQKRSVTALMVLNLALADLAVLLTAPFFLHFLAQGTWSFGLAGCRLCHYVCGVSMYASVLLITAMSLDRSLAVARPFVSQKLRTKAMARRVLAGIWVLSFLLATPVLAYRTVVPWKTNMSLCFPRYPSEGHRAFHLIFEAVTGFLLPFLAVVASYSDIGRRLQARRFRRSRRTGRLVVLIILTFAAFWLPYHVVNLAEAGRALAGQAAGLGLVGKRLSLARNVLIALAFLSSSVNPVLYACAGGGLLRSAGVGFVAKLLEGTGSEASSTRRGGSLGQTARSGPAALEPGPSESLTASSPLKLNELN

| Compound | % Agonist Activity (168 GPCRs [1]; MRGPRX2, 1 uM) [%] | % Antagonist Activity (168 GPCRs [1]; MRGPRX2, 1 uM) [%] | % Agonist Activity (168 GPCRs [1]; MRGPRX2, 10 uM) [%] | % Antagonist Activity (168 GPCRs [1]; MRGPRX2, 10 uM) [%] | % Agonist Activity (168 GPCRs [2]; CHRM2, 1 uM) [%] | % Antagonist Activity (168 GPCRs [2]; CHRM2, 1 uM) [%] | % Agonist Activity (168 GPCRs [2]; CHRM2, 10 uM) [%] | % Antagonist Activity (168 GPCRs [2]; CHRM2, 10 uM) [%] | % Agonist Activity (168 GPCRs [3]; 1 uM) [%] | % Antagonist Activity (168 GPCRs [3]; 1 uM) [%] | % Agonist Activity (168 GPCRs [3]; 10 uM) [%] | % Antagonist Activity (168 GPCRs [3]; 10 uM) [%] | % Agonist Activity (168 GPCRs [4]; Conc 1 uM) [%] | % Antagonist Activity (168 GPCRs [4]; Conc 1 uM) [%] | % Agonist Activity (168 GPCRs [4]; Conc 10 uM) [%] | % Antagonist Activity (168 GPCRs [4]; Conc 10 uM) [%] | % Agonist Activity (168 GPCRs [5]; HRH3, 1 uM) [%] | % Antagonist Activity (168 GPCRs [5]; HRH3, 1 uM) [%] | % Agonist Activity (168 GPCRs [5]; HRH3, 10 uM) [%] | % Antagonist Activity (168 GPCRs [5]; HRH3, 10 uM) [%] | also measured |
| --- | --- | --- | --- | --- | --- | --- | --- | --- | --- | --- | --- | --- | --- | --- | --- | --- | --- | --- | --- | --- | --- |
| CNC(C)C(=O)c1ccc2c(c1)OCO2 (centres unmarked) [methylone] | 1.4 | 16.2 | 0.7 | 8.9 | -0.2 | -18.5 | 0.2 | -7.4 | 1.1 | 10.3 | 1.2 | 13.2 | -1.9 | 10 | -3.3 | 9.1 | -3.4 | 9.5 | -3.7 | 5.8 | % Agonist Activity (168 GPCRs [6]; CCR6, 1 uM): -2.9%; % Antagonist Activity (168 GPCRs [6]; CCR6, 1 uM): 9.3%; % Agonist Activity (168 GPCRs [6]; CCR6, 10 uM): -3.3%; % Antagonist Activity (168 GPCRs [6]; CCR6, 10 uM): -1.6%; % Agonist Activity (168 GPCRs [7]; 1 uM): -0.3%; % Antagonist Activity (168 GPCRs [7]; 1 uM): 3.5%; % Agonist Activity (168 GPCRs [7]; 10 uM): -0.8%; % Antagonist Activity (168 GPCRs [7]; 10 uM): -5.2% |
| CNC(C)Cc1ccc2c(c1)OCO2 (centres unmarked) [MDMA, 3,4-Methylenedioxy methamphetamine, reference compound] | -0.8 | -6 | -0.8 | 1.9 | 0.9 | -1 | 1.4 | 10.5 | 0 | -2.5 | 0.1 | 4.3 | 0.1 | 12.5 | -0.1 | 10.7 | -3.1 | 6.2 | -2.6 | 22.6 | % Agonist Activity (168 GPCRs [6]; CCR6, 1 uM): 1.4%; % Antagonist Activity (168 GPCRs [6]; CCR6, 1 uM): 0%; % Agonist Activity (168 GPCRs [6]; CCR6, 10 uM): 0.7%; % Antagonist Activity (168 GPCRs [6]; CCR6, 10 uM): 0.3%; % Agonist Activity (168 GPCRs [7]; 1 uM): 0.5%; % Antagonist Activity (168 GPCRs [7]; 1 uM): 8.9%; % Agonist Activity (168 GPCRs [7]; 10 uM): 0.5%; % Antagonist Activity (168 GPCRs [7]; 10 uM): 11.3% |
